How the values were obtained:
[1] = system: HIV-IIIb; assay: Test A: Antiviral Assay in MT4 Cells; type: cell-based, HIV-1; conditions: Human immunodeficiency virus 1, MT4, 120 h, read-out: % Inh @ 2 uM (percent inhibition of virus-induced cell killing); 2 uM test compound; MT-4 cells infected with HIV-IIIb, 5 days, CellTiter-Glo
Protocol: (§1) Test A: Antiviral Assay in MT4 Cells For the antiviral assay, 40 μL of 1× test concentration of 3-fold serially diluted compound in culture medium with 10% FBS was added to each well of a 384-well plate (10 concentrations) in quadruplicate. MT-4 cells were next mixed with HIV-IIIb at an m.o.i of 0.003 for 1 hour, after which time 35 μL of virus/cell mixture (2000 cells) was immediately added to each well containing 40 μL of diluted compound. The plates were then incubated at 37° C. for 5 days. After 5 days of incubation, 25 μl of 2× concentrated CellTiter-Glo™ Reagent (catalog #G7571, Promega Biosciences, Inc., Madison, Wis.) was added to each well containing MT-4 cells. Cell lysis was carried out by incubating at room temperature for 10 min and then chemiluminescence was read. […] Accordingly, the compounds disclosed herein may be useful for treating an HIV virus infection, treating AIDS or for delaying the onset of AIDS or ARC symptoms.

[2] = Test B: Cytotoxicity Assay (uninfected MT-4 cells); type: cell-based; conditions: human, same protocol as Test A, read-out: MT4-CC50
Protocol: as §1, with “For” for “Test A: Antiviral Assay in MT4 Cells For”, “Test B: Cytotoxicity Assay Compound cytotoxicity and” for “Accordingly,”, “corresponding CC50 values were determined using” for “compounds disclosed herein may be useful for treating an HIV virus infection, treating AIDS or for delaying”, “same protocol as described in the antiviral assay (Test A) except that uninfected cells were used.” for “onset of AIDS or ARC symptoms.”

Row | SMILES | inhibition at 2 µM [1] | CC50 at 5 days [2]
1 | COc1ccc(N(C)C(=O)[C@@H]2Cc3cccc(c3)CC=Cc3[nH]c4ccccc4c3CC(=O)N2)cc1 (stereo in doubt) [Example 11, (4S,12Z)—N-(4-methoxyphenyl)-N-methyl-2-oxo-2,3,4,5,11,14-hexahydro-1H-6,10-(metheno)azacyclopentadecino[5,4-b]indole-4-carboxamide] | 102% | 23.9 µM
2 | COc1ccc(N(C)C(=O)[C@@H]2Cc3cccc(c3)CCCc3[nH]c4ccc(O)cc4c3CC(=O)N2)cc1 [Example 2] | 102% | > 46.4 µM
3 | COc1ccc(N(C)C(=O)[C@@H]2Cc3cccc(c3)CCc3[nH]c4ccccc4c3CC(=O)N2)cc1 [Example 3] | 99.2% | > 53 µM
4 | COc1ccc(N(C)C(=O)[C@@H]2Cc3cccc(c3)CCCCc3[nH]c4ccccc4c3CC(=O)N2)cc1 [Example 4] | 79.6% | > 48.7 µM
5 | COc1ccc(N(C)C(=O)[C@@H]2Cc3cccc(c3)CCSCc3[nH]c4ccc(O)cc4c3CC(=O)N2)cc1 [Example 6] | 94.3% | 49.2 µM
6 | COc1ccc(N(C)C(=O)[C@@H]2Cc3cccc(c3)CCSCc3[nH]c4ccc(F)cc4c3CC(=O)N2)cc1 [Example 7] | 26.3% | > 53 µM
7 | COc1ccc(N(C)C(=O)[C@@H]2Cc3cccc(c3)CCS(=O)(=O)Cc3[nH]c4ccccc4c3CC(=O)N2)cc1 [Example 8, (11S)—N-(4-methoxyphenyl)-N-methyl-13-oxo-3,4,10,11,12,13,14,19-octahydro-1H-9,5-(metheno)[1,7]thiazacyclohexadecino[3,4-b]indole-11-carboxamide 2,2-dioxide] | 0.6% | > 53 µM
8 | COc1ccc(N(C)C(=O)[C@@H]2Cc3cccc(c3)CCS(=O)(=O)Cc3[nH]c4ccc(O)cc4c3CC(=O)N2)cc1 [Example 9] | 0.7% | > 53 µM
9 | COc1ccc(N(C)C(=O)[C@@H]2Cc3cccc(c3)CCS(=O)(=O)Cc3[nH]c4ccc(F)cc4c3CC(=O)N2)cc1 [Example 10] | 1.8% | > 53 µM
10 | COc1ccc(N(C)C(=O)[C@@H]2Cc3cccc(c3)C/C=C/c3[nH]c4ccc(F)cc4c3CC(=O)N2)cc1 [Example 12] | 85.5% | 31.8 µM
11 | COc1ccc(N(C)C(=O)[C@@H]2Cc3cccc(c3)C/C=C\c3[nH]c4ccccc4c3CC(=O)N2)cc1 [Example 13] | 99% | > 53 µM
12 | COc1ccc(N(C)C(=O)[C@@H]2Cc3cccc(c3)C/C=C\c3[nH]c4ccc(F)cc4c3CC(=O)N2)cc1 [Example 14] | 95.6% | 44.3 µM
13 | COc1ccc(N(C)C(=O)[C@@H]2Cc3cccc(c3)CS(=O)(=O)Cc3[nH]c4ccccc4c3CC(=O)N2)cc1 [Example 16, (10S)—N-(4-methoxyphenyl)-N-methyl-12-oxo-9,10,11,12,13,18-hexahydro-1H-8,4-(metheno)[1,7]thiazacyclopentadecino[3,4-b]indole-10(3H)-carboxamide 2,2-dioxide] | 67.8% | > 53 µM
14 | COc1ccc(N(C)C(=O)[C@@H]2Cc3cccc(c3)/C=C\c3[nH]c4ccccc4c3CC(=O)N2)cc1 [Example 17, (4S,11Z)—N-(4-methoxyphenyl)-N-methyl-2-oxo-1,2,3,4,5,13-hexahydro-6,10-(metheno)azacyclotetradecino[5,4-b]indole-4-carboxamide] | 4.7% | > 53 µM
15 | COc1ccc(N(C)C(=O)[C@@H]2Cc3cccc(c3)S(=O)(=O)Cc3[nH]c4ccccc4c3CC(=O)N2)cc1 [Example 19, (9S)—N-(4-methoxyphenyl)-N-methyl-11-oxo-8,9,10,11,12,17-hexahydro-1H-7,3-(metheno)[1,7]thiazacyclotetradecino[3,4-b]indole-9-carboxamide 2,2-dioxide] | 80.3% | > 53 µM

Source: patent US9012441B2, “Therapeutic compounds” (Gilead Sciences, Inc., priority 2013, dated 2015)
